Laboratory results reported in article PMC5608758, “A brain-targeting lipidated peptide for neutralizing RNA-mediated toxicity in Polyglutamine Diseases” (Scientific Reports, 2017).
Values joined by “and” are separate entries in the source; they are usually repeats but may differ in a detail not shown here. Equal entries are not always repeated. “Also recorded” adds a separate entry of the source. Where two headings read alike, the source gives them in different places. Residues, ends and D or L forms follow the SMILES beside them. *: point of attachment. Palmitoyl = CCCCCCCCCCCCCCCC(=O)*

Experiments:
[1] = system: EGFP CAG78 RNA-expressing HEK293 cells; assay type: cell-based; settings: for suppression of expanded CAG RNA-induced cell death: LDH assay
Procedure: (§1) HEK293 cells were cultured at 37 °C with 5% CO2 in DMEM supplemented with 10% FBS and 1% penicillin-streptomycin. Primary rat cortical neurons were isolated and cultured as previously described. Transient transfection of HEK293 cells was performed using Lipofectamine 2000 (Life Technologies). P3V8 were delivered to HEK293 cells using the DeliverX (DX) Peptide Transfection Kit (Affymetrix) 4 hr after DNA transfection. At least two batches of independently synthesized peptides were used in the experiments.
HEK 293 cells were seeded on a 24-well plate at a density of 0.5 × 10^5, and pEGFP CAG78 DNA construct was used to transfect the cells. […] […] Seventy-two hours after treatment, LDH enzyme activity in the cell culture medium was measured as described before. Experimental groups were normalized to the untransfected control. After normalization, data were analyzed using the dose response-inhibition curve (nonlinear regression-variable slope) to determine the IC50 value (Prism6 software, GraphPad Software, Inc.). Each experiment was repeated at least 3 times.

[2] = system: primary rat cortical neurons; assay: LDH cytotoxicity in primary neurons; assay type: cell-based; settings: 0.01 nM to 1 µM, 72 hr; P3V8 transfected with DeliverX; 3 independent experiments
Procedure: as §1, with “experiments. […]” for “experiments.”
cortical neurons. A density of […] of primary rat cortical neurons were seeded on culture […]
and 1000 nM of P3V8 peptide (transfected with DeliverX). The lactate dehydrogenase (LDH) cytotoxicity activity was measured 72 hr post-treatment. Fold change of LDH activity was normalized to untreated cells. Data are expressed as mean ± S.E.M. for 3 independent experiments. NS indicates no significance.
(1 picture or pasted object on this page, not shown here)
The LDH cytotoxicity activity was measured 72 hr post-treatment. Fold change of LDH activity was normalized to untreated cells. Data are expressed as mean ± S.E.M. for 3 independent experiments. NS indicates no significance.

[3] = Plasma pharmacokinetic study in SD rat
Procedure: SD rats (180–200 g) were anesthetized with an intraperitoneal injection of ketamine (60 mg/kg) and xylazine (6 mg/kg) and received a minor surgery of cannulation with a polythene tube (0.4 mm i.d., 0.8 mm o.d., Harvard Apparatus, Holliston, MA, USA) in the left jugular vein. The rats received an overnight recovery with free access to food and water. […] For the pharmacokinetic study, after the drug administration, blood samples were collected from the catheter at appropriate time intervals (2, 5, 10, 15, 20, 30, 45, 60, and 90 min). After each collection, 0.2 mL of saline containing 25 IU heparin was injected to compensate for the blood loss. Plasma was collected after centrifugation at 8000 rcf for 3.5 min and stored at −80°C until analysis. For brain uptake study, at 20 min, the rat was anesthetized and perfused by 500 mL saline, and the whole brain was collected. The brain was wiped by tissue paper to remove excess water, meninges and blood vessels followed by storage at −80 °C until analysis.
Aliquot of plasma sample (80 μL) was mixed with 160 μL acetonitrile. The mixture was vortexed for 1 min and followed by centrifugation at 13000 rcf for 10 min. The supernatant was collect and subjected to LC/MS/MS analysis.
Agilent 6430 Triple Quadrupole LC/MS/MS system (Agilent Technologies, CA, USA) was employed for the analysis. For analysis of P3V8, chromatographic separation was achieved on a SunFire C8 Column (250 mm × 4.6 mm, 5 µm). The mobile phase of water containing 0.2% formic acid (A) and acetonitrile (B) was used with a gradient elution (0–5 min, 20–70% B). The flow rate was 0.8 mL/min. Multiple reactions monitoring (MRM) with fragmentation transition of 500 to 129 in positive ion mode was employed for quantization of P3V8. […] Mobile phase of water (A) and acetonitrile (B) was used. The gradient elution for plasma samples was 0–4 min, 30–95% B, and for brain samples was 0–9 min, 10–95% B. The flow rate was 0.8 mL/min.
Plasma concentration verse time profiles were analyzed by WinNonlin (Pharsight Corporation, Mountain View, CA, USA, Version 2.1) to obtain the pharmacokinetics parameters. Other data were analyzed by one-way ANOVA followed by post hoc Tukey test or unpaired t-test. “*”, “**”, “***” and “****” represent P < 0.05, P < 0.01, P < 0.001 and P < 0.0001 respectively, which are considered statistically significant.

[4] = In vitro stability in rat brain homogenate; assay type: in vitro ADME; settings: for remaining at 1 h, 1000 ng/mL / remaining at 1 h, 2000 ng/mL: incubation 1 hr; for remaining at 1 h, 2000 ng/mL: 100 rpm
Procedure: Sprague-Dawley (SD) rats (male, 180-200 g) were supplied by the Laboratory Animal Services Centre at The Chinese University of Hong Kong. All animal studies were conducted under the approval of the Animal Ethics Committee of The Chinese University of Hong Kong, and were performed in accordance with relevant guidelines and regulations. Blank rat brain homogenate was prepared by ultrasonic probe homogenization (Micoson XL-2000, Misonix, […], USA) of brains collected from the control rats. Blank rat plasma was prepared by centrifugation (8000 rcf for 3.5 min) of blood collected from control rats. […] The mixtures were incubated at 37 °C with 100 rpm in a water bath for 1 or 3 hr. […] The supernatant was collected for LC/MS/MS analysis.

[5] = SD rats, intranasal, 3 μmol/kg, pre-treated with 0.5% chitosan, mean ± S.E.M. of 6
[6] = SD rats, intranasal, 3 μmol/kg, pre-treated with 0.5% chitosan, plasma, mean ± S.E.M. of 6
[7] = Sprague-Dawley, rat, in vivo, iv, 3 μmol/kg
[8] = male, Sprague-Dawley, rat, tissue homogenate, read-out: Percentage of remained
[9] = Sprague-Dawley, rat, plasma, iv, 3 μmol/kg

In the case of CCCCCCCCCCCCCCCC(=O)N[C@@H](CC(=O)O)C(=O)NCC(=O)N[C@@H](CCCCN)C(=O)N[C@@H](CO)C(=O)N[C@@H](CCCCN)C(=O)NCC(=O)N[C@H](C(=O)N[C@@H](C)C(=O)N[C@@H](Cc1ccc(O)cc1)C(=O)N[C@H](C(=O)N[C@@H](CCC(=O)O)C(=O)N[C@@H](Cc1ccccc1)C(=O)N[C@@H](CCCCN)C(N)=O)[C@@H](C)CC)[C@@H](C)CC [L1P3V8] (Palmitoyl-DGKSKGIAYIEFK-NH2), the IC50 ([1]; read-out: IC50, inhibition of cell death (LDH enzyme activity reduced by 50%), peptide added without DeliverX immediately after plasmid transfection, LDH 72 hr after treatment, mean ± S.E.M., at least 3 experiments) is reported as about 100 nM, the “cytotoxicity (LDH release)” value [2] is reported as “no cytotoxicity; also recorded: no cytotoxic effects” and the AUC0-last [3, 5] is reported as 2277 ± 558^*** min * nmol/L. For the same compound, the T1/2 [3, 5] was 37 ± 5 min, the Tmax [3, 5] was 18 ± 1 min and the Cmax [3, 6] was 74 ± 13^*** nmol/L. The level at time molar at 1.5 h ([3]; Sprague-Dawley, rat, in vivo, iv, 3 umol/kg) was 190 nM, the AUC(0-t) [3, 7] was 2.99 µM·h and the Cmax [3, 7] was 10400 ± 1220 nM. The Tmax [3, 7] was 2 min, the half-life [3, 7] was 17 ± 4 min and the remaining at 1 h, 500 ng/mL [4, 8] was under 20%. It also gave a remaining at 3 h, 500 ng/mL [4, 8] of under 20%, a remaining at 1 h, 1000 ng/mL ([4]; male, Sprague-Dawley, tissue homogenate, rat brain homogenate, 37 °C, LC/MS/MS, mean ± S.E.M. of 5, read-out: Percentage of remained) of 22.8 ± 1.2% and a remaining at 3 h, 1000 ng/mL ([4]; male, Sprague-Dawley, tissue homogenate, rat brain homogenate, 37 °C, incubation 3 hr, LC/MS/MS, mean ± S.E.M. of 5, LLOQ 12.5 ng/mL P3V8, read-out: Percentage of remained) of 15.8 ± 0.7%. For the same compound, the remaining at 1 h, 2000 ng/mL ([4]; male, Sprague-Dawley, tissue homogenate, rat brain homogenate, 2000 ng/mL, 37 °C, LC/MS/MS, mean ± S.E.M. of 5, read-out: Percentage of remained) was 45 ± 3.5% and the remaining at 3 h, 2000 ng/mL ([4]; male, Sprague-Dawley, tissue homogenate, rat brain homogenate, 2000 ng/mL, 37 °C, incubation 3 hr, LC/MS/MS, mean ± S.E.M. of 5, LLOQ 12.5 ng/mL P3V8, read-out: Percentage of remained) was 21.2 ± 3%.

In the case of Ac-DGKSKGIAYIEFK-NH2 [P3V8], the “suppression of expanded CAG RNA-induced cell death” value ([1]; peptide alone, without DeliverX) is reported as “did not exert any cellular effect”, the “suppression of expanded CAG RNA-induced cell death” value ([1]; peptide transfected with DeliverX 4 hr after plasmid transfection) is reported as “could effectively alleviate the cytotoxicity” and the “cytotoxicity (LDH release)” value [2] is reported as “no cytotoxicity; also recorded: no significant cell death”. For the same compound, the AUC0-last [3, 5] was 85 ± 32 nmol·min/L, the Tmax [3, 5] was 15 min and 15 ± 4 min and the Cmax [3, 6] was 12 ± 2 nM. For the same compound, the Tmax ([3]; Sprague-Dawley, rat, plasma, iv, 3 umol/kg) was 2 min, the AUC(0-t) [3, 9] was 0.0202 µM·h and the Cmax [3, 9] was 452 ± 22 nM. It also gave a remaining at 1 h, 500 ng/mL ([4]; male, Sprague-Dawley, rat, rat brain homogenate, read-out: Percentage of remained) of under 2.5%, a remaining at 1 h, 1000 ng/mL ([4]; male, Sprague-Dawley, rat brain homogenate, 37 °C, LC/MS/MS, mean ± S.E.M. of 5, read-out: Percentage of remained) of 4 ± 1.6% and a remaining at 3 h, 1000 ng/mL ([4]; male, Sprague-Dawley, rat brain homogenate, 37 °C, incubation 3 hr, LC/MS/MS, mean ± S.E.M. of 5, LLOQ 12.5 ng/mL P3V8, read-out: Percentage of remained) of under 1.3%. The remaining at 1 h, 2000 ng/mL ([4]; male, Sprague-Dawley, rat brain homogenate, 2000 ng/mL, 37 °C, LC/MS/MS, mean ± S.E.M. of 5, read-out: Percentage of remained) was 3.3 ± 0.6%, the remaining at 3 h, 2000 ng/mL ([4]; male, Sprague-Dawley, rat brain homogenate, 2000 ng/mL, 37 °C, incubation 3 hr, LC/MS/MS, mean ± S.E.M. of 5, LLOQ 12.5 ng/mL P3V8, read-out: Percentage of remained) was under 0.6% and the Percentage of remained ([4]; rat brain homogenate, 2000 ng/mL, 37 °C, incubation 3 hr, LC/MS/MS, mean ± S.E.M. of 5, LLOQ 12.5 ng/mL P3V8) was “almost completely degraded”.
